Laboratory results taken from patent US6777422B2, “Substituted tetrahydroisoquinolines as C5a receptor modulators” (Neurogen Corp., priority 2002, dated 2004).

Target: T1, human C5a receptor (Homo sapiens, UniProt P21730)
T1 construct: endogenous in cells; host or cells: U937 cells differentiated with 1 mM dibutyryl cAMP
T1 sequence (P21730 1-350): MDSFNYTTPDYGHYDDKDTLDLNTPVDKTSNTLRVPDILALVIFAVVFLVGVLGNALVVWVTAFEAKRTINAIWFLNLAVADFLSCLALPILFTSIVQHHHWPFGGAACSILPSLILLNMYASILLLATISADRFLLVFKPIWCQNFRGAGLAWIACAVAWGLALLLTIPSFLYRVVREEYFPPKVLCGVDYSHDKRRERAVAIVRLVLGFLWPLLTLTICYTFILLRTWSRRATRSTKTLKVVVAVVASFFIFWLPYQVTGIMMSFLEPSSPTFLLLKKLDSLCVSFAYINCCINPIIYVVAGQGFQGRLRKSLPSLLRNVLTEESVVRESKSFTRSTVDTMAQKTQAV
Test: C5a receptor mediated calcium mobilization assay (Example 20)
Assay type: cell-based
Conditions: differentiated U937 cells, read-out: Ca2+ (Ki in the standard assay of C5a receptor mediated calcium mobilization)
In short: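 Differentiated U937 cells (dibutyryl cAMP, 48 h) loaded with Fluo-3 were pre-incubated 1 h with compound at 1 μM, then challenged with 0.3 nM (final) human recombinant C5a. Calcium response monitored by FLIPR fluorescence (Ex 480/Em 530 nm); antagonism defined as ≥2-fold decrease versus C5a alone.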

Row | Ki [µM] | SMILES
1 | < 1 | C[C@@H](C(=O)N(CCc1ccccc1F)Cc1ccc(O)cc1)N1CCc2ccccc2[C@@H]1c1ccccc1Cl [Compound 104, (2S)-2-[(1R)-1-(2-chlorophenyl)-3,4-dihydroisoquinolin-2(1H)-yl]-N-[2-(2-fluorophenyl)ethyl]-N-(4-hydroxybenzyl)propanamide]
2 | < 1 | C[C@@H](C(=O)N(Cc1cccc(C(=O)N(C)C)c1)C1Cc2ccccc2C1)N1CCc2ccccc2[C@@H]1c1ccccc1Cl [Compound 105, 3-{[{(2S)-2-[(1R)-1-(2-chlorophenyl)-3,4-dihydroisoquinolin-2(1H)-yl]propanoyl}(indan-2-yl)amino]methyl}-N,N-dimethylbenzamide]
3 | < 1 | Cc1cc(CN(C(=O)[C@H](C)N2CCc3ccccc3[C@@H]2c2ccccc2Cl)C2Cc3ccccc3C2)cc(C)c1O [Compound 106, (2S)-2-[(1R)-1-(2-chlorophenyl)-3,4-dihydroisoquinolin-2(1H)-yl]-N-(indan-2-yl)-N-(4-hydroxy-3,5-dimethylbenzyl)propanamide]
4 | < 1 | C[C@@H](C(=O)N(CCc1ccccc1)CCc1ccccc1F)N1CCc2ccccc2[C@@H]1c1ccccc1Cl [Compound 108, (2S)-2-[(1R)-1-(2-chlorophenyl)-3,4-dihydroisoquinolin-2(1H)-yl]-N-[2-(2-fluorophenyl)ethyl]-N-(2-phenylethyl)propanamide]
5 | < 1 | C[C@@H](C(=O)N(CCc1ccccc1F)Cc1ccccc1F)N1CCc2ccccc2[C@@H]1c1ccccc1Cl [Compound 109, (2S)-2-[(1R)-1-(2-chlorophenyl)-3,4-dihydroisoquinolin-2(1H)-yl]-N-(2-fluorobenzyl)-N-[2-(2-fluorophenyl)ethyl] propanamide]
6 | < 1 | Cc1cc(CN(C(=O)[C@H](C)N2CCc3ccccc3[C@@H]2c2c(Cl)cccc2Cl)C2Cc3ccccc3C2)cc(C)c1O [Compound 110, (2S)-2-[(1R)-1-(2,6-dichlorophenyl)-3,4-dihydroisoquinolin-2(1H)-yl]-N-(indan-2-yl)-N-(4-hydroxy-3,5-dimethylbenzyl) propanamide]
7 | < 1 | C[C@@H](C(=O)N(Cc1cccc(C#N)c1)C1Cc2ccccc2C1)N1CCc2ccccc2[C@@H]1c1ccccc1Cl [Compound 111, (2S)-2-[(1R)-1-(2-chlorophenyl)-3,4-dihydroisoquinolin-2(1H)-yl]-N-(3-cyanobenzyl)-N-(indan-2-yl)propanamide]
8 | < 1 | C[C@@H](C(=O)N(Cc1cccc([N+](=O)[O-])c1)C1Cc2ccccc2C1)N1CCc2ccccc2[C@@H]1c1ccccc1Cl [Compound 112, (2S)-2-[(1R)-1-(2-chlorophenyl)-3,4-dihydroisoquinolin-2(1H)-yl]-N-(indan-2-yl)-N-(3-nitrobenzyl)propanamide]
9 | < 1 | Cc1ccccc1[C@H]1c2ccccc2CCN1CC(=O)N(Cc1cccc(O)c1)C1Cc2ccccc2C1 [Compound 113, N-(indan-2-yl)-N-(3-hydroxybenzyl)-2-[(1S)-1-(2-methylphenyl)-3,4-dihydroisoquinolin-2(1H)-yl]acetamide]
10 | < 1 | C[C@@H](C(=O)N(Cc1cccc(O)c1)C1Cc2ccccc2C1)N1CCc2ccccc2[C@@H]1c1ccccc1Cl [Compound 114, (2S)-2-[(1R)-1-(2-chlorophenyl)-3,4-dihydroisoquinolin-2(1H)-yl]-N-(indan-2-yl)-N-(3-hydroxybenzyl)propanamide]
11 | < 1 | C[C@@H](C(=O)N(Cc1cccc(O)c1F)C1Cc2ccccc2C1)N1CCc2ccccc2[C@@H]1c1ccccc1Cl [Compound 115, (2S)-2-[(1R)-1-(2-chlorophenyl)-3,4-dihydroisoquinolin-2(1H)-yl]-N-(indan-2-yl)-N-(2-fluoro-3-hydroxybenzyl)propanamide]
12 | < 1 | Cc1ccccc1C1c2c(Cl)cccc2CCN1CC(=O)N(Cc1ccccc1F)C1Cc2ccccc2C1 (stereo not shown) [Compound 116, 2-[8-chloro-1-(2-methylphenyl)-3,4-dihydroisoquinolin-2(1H)-yl]-N-(indan-2-yl)-N(2-fluorobenzyl)acetamide]
13 | < 1 | O=C(CN1CCc2cccc(Cl)c2C1c1c(F)cccc1Cl)N(Cc1ccccc1F)C1Cc2ccccc2C1 (stereo not shown) [Compound 117, 2-[8-chloro-1-(2-chloro-6-fluorophenyl)-3,4-dihydroisoquinolin-2(1H)-yl]-N-(indan-2-yl)-N-(2-fluorobenzyl)acetamide]
14 | < 1 | C[C@@H](C(=O)N(CCc1ccc(O)cc1)Cc1ccccc1F)N1CCc2ccccc2[C@@H]1c1cccc2ccccc12 [Compound 118, (2S)-N-(2-fluorobenzyl)-N-[2-(4-hydroxyphenyl)ethyl]-2-[(1R)-1-(1-naphthyl)-3,4-dihydroisoquinolin-2(1H)-yl]propanamide]
15 | < 1 | C[C@@H](C(=O)N(CCc1c[nH]c2ccccc12)Cc1ccccc1F)N1CCc2ccccc2[C@@H]1c1cccc2ccccc12 [Compound 119, (2S)-N-(2-fluorobenzyl)-N-[2-(1H-indol-3-yl)ethyl]-2-[(1R)-1-(1-naphthyl)-3,4-dihydroisoquinolin-2(1H)-yl]propanamide]
16 | < 1 | C[C@@H](C(=O)N(Cc1cccc(OC(F)F)c1F)C1Cc2ccccc2C1)N1CCc2ccccc2[C@@H]1c1ccccc1Cl [Compound 120, (2S)-2-[(1R)-1-(2-chlorophenyl)-3,4-dihydroisoquinolin-2(1H)-yl]-N-[3-(difluoromethoxy)-2-fluorobenzyl]-N-(indan-2-yl)propanamide]
17 | < 1 | COc1ncccc1CN(C(=O)[C@H](C)N1CCc2ccccc2[C@@H]1c1cccc2ccccc12)C1Cc2ccccc2C1 [Compound 121, (2S)-N-(indan-2-yl)-N-[(2-methoxypyridin-3-yl)methyl]-2-[(1R)-1-(1-naphthyl)-3,4-dihydroisoquinolin-2(1H)-yl]propanamide]
18 | < 1 | COc1ncccc1CN(Cc1ccccc1F)C(=O)[C@H](C)N1CCc2ccccc2[C@@H]1c1cccc2ccccc12 [Compound 122, (2S)-N-(2-fluorobenzyl)-N-[(2-methoxypyridin-3-yl)methyl]-2-[(1R)-1-(1-naphthyl)-3,4-dihydroisoquinolin-2(1H)-yl]propanamide]
19 | < 1 | O=C(CN1CCc2ccccc2C1c1ccc(O)cc1)N(Cc1ccccc1F)C1Cc2ccccc2C1 (stereo not shown) [Compound 123, N-(indan-2-yl)-N-(2-fluorobenzyl)-2-[1-(4-hydroxyphenyl)-3,4-dihydroisoquinolin-2(1H)-yl]acetamide]
20 | < 1 | COc1cccc(CN(C(=O)[C@H](C)N2CCc3ccccc3[C@@H]2c2cccc3ccccc23)C2Cc3ccccc3C2)n1 [Compound 124, (2S)-N-(indan-2-yl)-N-[(6-methoxypyridin-2-yl)methyl]-2-[(1R)-1-(1-naphthyl)-3,4-dihydroisoquinolin-2(1H)-yl]propanamide]
21 | < 1 | COc1cccc(CN(Cc2ccccc2F)C(=O)[C@H](C)N2CCc3ccccc3[C@@H]2c2cccc3ccccc23)n1 [Compound 125, (2S)-N-(2-fluorobenzyl)-N-[(6-methoxypyridin-2-yl)methyl]-2-[(1R)-1-(1-naphthyl)-3,4-dihydroisoquinolin-2(1H)-yl]propanamide]
22 | < 1 | C[C@@H](C(=O)N(Cc1ncccc1F)C1Cc2ccccc2C1)N1CCc2ccccc2[C@@H]1c1cccc2ccccc12 [Compound 126, (2S)-N-(indan-2-yl)-N-[(3-fluoropyridin-2-yl)methyl]-2-[(1R)-1-(1-naphthyl)-3,4-dihydroisoquinolin-2(1H)-yl]propanamide]
